Patent US20090099167A1, “Organic compounds” (Novartis Institutes for Biomedical Research, priority 2004, published 2009)

Tests used:
human Flt-3 = biological target: T1, human Flt-3 (Homo sapiens, UniProt P36888); assay: Flt3 kinase inhibition, GST-Flt-3, 33P incorporation into poly(Glu,Tyr); assay type: biochemical; details: Table 5; read-out: Flt-3, IC50 class
T1 construct: expressing the amino acid region amino acids 563-993 of the cytoplasmic kinase domain of human Flt-3; made in house; host or cells: Sf9 (baculovirus)
T1 sequence (P36888 563-993): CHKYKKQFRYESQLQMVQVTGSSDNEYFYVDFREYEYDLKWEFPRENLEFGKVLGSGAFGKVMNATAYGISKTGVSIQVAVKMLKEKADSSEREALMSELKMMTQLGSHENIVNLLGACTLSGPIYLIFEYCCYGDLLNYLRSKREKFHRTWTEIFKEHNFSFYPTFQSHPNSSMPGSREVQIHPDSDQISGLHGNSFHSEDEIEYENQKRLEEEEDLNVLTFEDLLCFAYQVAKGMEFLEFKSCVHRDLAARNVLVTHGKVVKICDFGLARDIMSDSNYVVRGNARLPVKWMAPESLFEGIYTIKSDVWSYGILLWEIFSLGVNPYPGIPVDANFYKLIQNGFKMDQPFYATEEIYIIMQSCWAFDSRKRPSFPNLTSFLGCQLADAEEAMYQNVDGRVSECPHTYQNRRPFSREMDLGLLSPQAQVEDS
Procedure: (§1) The compounds to be tested are then diluted in culture medium (without FCS, with 0.1% bovine serum albumin) and added to the cells. (Controls comprise medium without test compounds). After two hours' incubation at 37° C., recombinant VEGF is added; the final VEGF concentration is 20 ng/ml). After a further five minutes incubation at 37° C., the cells are washed twice with ice-cold PBS (phosphate-buffered saline) and immediately lysed in 100 μl lysis buffer per well. The lysates are then centrifuged to remove the cell nuclei, and the protein concentrations of the supernatants are determined using a commercial protein assay (BIORAD). The lysates can then either be immediately used or, if necessary, stored at −20° C. A sandwich ELISA is carried out to measure the VEGF-R2 phosphorylation: a monoclonal antibody to VEGF-R2 (for example Mab 1495.12.14; ProQinase, Freiburg, Germany) is immobilized on black ELISA plates (OptiPlate™ HTRF-96 from Packard). The plates are then washed and the remaining free protein-binding sites are saturated with 3% TopBlock® (Juro, Cat. # TB232010) in phosphate buffered saline with Tween 20® (polyoxyethylen(20)-sorbitane monolaurate, ICI/Uniquema) (PBST). The cell lysates (20 μg protein per well) are then incubated in these plates overnight at 4° C. together with an antiphosphotyrosine antibody coupled with alkaline phosphatase (PY20:AP from Zymed). […] The luminescence is measured in a Packard Top Count Microplate Scintillation Counter. The difference between the signal of the positive control (stimulated with VEGF) and that of the negative control (not stimulated with VEGF) corresponds to VEGF-induced VEGF-R2 phosphorylation (=100%). The activity of the tested substances is calculated as percent inhibition of VEGF-induced VEGF-R2 phosphorylation, wherein the concentration of substance that induces half the maximum inhibition is defined as the IC50 (inhibitory dose for 50% inhibition). […] Flt3 kinase inhibition is determined as follows: The baculovirus donor vector pFbacG01 (GIBCO) is used to generate a recombinant baculovirus expressing the amino acid region amino acids 563-993 of the cytoplasmic kinase domain of human Flt-3. The coding sequence for the cytoplasmic domain of Flt-3 is amplified by PCR from human c-DNA libraries (Clontech). The amplified DNA fragments and the pFbacG01 vector are made compatible for ligation by digestion with BamH1 and HindIII. Ligation of these DNA fragments results in the baculovirus donor plasmid Flt-3(1.1). The production of the viruses, the expression of proteins in Sf9 cells and the purification of the GST-fused proteins are performed as follows: Production of virus: Transfer vector (pFbacG01-Flt-3) containing the Flt-3 kinase domain is transfected into the DH10Bac cell line (GIBCO) and the transfected cells are plated on selective agar plates. Colonies without insertion of the fusion sequence into the viral genome (carried by the bacteria) are blue. Single white colonies are picked and viral DNA (bacmid) is isolated from the bacteria by standard plasmid purification procedures. Sf9 or Sf21 cells (American Type Culture Collection) are then transfected in flasks with the viral DNA using Cellfectin reagent. Determination of small scale protein expression in Sf9 cells: Virus containing media is collected from the transfected cell culture and used for infection to increase its titre. Virus containing media obtained after two rounds of infection is used for large-scale protein expression. For large-scale protein expression 100 cm^2 round tissue culture plates are seeded with 5×10^7 cells/plate and infected with 1 mL of virus-containing media (approx. 5 MOIs). After 3 days the cells are scraped off the plate and centrifuged at 500 rpm for 5 min. Cell pellets from 10-20, 100 cm^2 plates, are resuspended in 50 mL of ice-cold lysis buffer (25 mMTris-HCl, pH 7.5, 2 mM EDTA, 1% NP-40, 1 mM DTT, 1 mM PMSF). The cells are stirred on ice for 15 min and then centrifuged at 5000 rpms for 20 min. […]

[1] = biological target: T2, human VEGF-R2 receptor (KDR) (Homo sapiens, UniProt P35968); assay: VEGF-induced KDR autophosphorylation in transfected CHO cells, sandwich ELISA; assay type: cell-based; details: Table 5; read-out: KDR, IC50 class
T2 construct: expressed in transfected cells; host or cells: CHO cells
T2 sequence (P35968 20-1356): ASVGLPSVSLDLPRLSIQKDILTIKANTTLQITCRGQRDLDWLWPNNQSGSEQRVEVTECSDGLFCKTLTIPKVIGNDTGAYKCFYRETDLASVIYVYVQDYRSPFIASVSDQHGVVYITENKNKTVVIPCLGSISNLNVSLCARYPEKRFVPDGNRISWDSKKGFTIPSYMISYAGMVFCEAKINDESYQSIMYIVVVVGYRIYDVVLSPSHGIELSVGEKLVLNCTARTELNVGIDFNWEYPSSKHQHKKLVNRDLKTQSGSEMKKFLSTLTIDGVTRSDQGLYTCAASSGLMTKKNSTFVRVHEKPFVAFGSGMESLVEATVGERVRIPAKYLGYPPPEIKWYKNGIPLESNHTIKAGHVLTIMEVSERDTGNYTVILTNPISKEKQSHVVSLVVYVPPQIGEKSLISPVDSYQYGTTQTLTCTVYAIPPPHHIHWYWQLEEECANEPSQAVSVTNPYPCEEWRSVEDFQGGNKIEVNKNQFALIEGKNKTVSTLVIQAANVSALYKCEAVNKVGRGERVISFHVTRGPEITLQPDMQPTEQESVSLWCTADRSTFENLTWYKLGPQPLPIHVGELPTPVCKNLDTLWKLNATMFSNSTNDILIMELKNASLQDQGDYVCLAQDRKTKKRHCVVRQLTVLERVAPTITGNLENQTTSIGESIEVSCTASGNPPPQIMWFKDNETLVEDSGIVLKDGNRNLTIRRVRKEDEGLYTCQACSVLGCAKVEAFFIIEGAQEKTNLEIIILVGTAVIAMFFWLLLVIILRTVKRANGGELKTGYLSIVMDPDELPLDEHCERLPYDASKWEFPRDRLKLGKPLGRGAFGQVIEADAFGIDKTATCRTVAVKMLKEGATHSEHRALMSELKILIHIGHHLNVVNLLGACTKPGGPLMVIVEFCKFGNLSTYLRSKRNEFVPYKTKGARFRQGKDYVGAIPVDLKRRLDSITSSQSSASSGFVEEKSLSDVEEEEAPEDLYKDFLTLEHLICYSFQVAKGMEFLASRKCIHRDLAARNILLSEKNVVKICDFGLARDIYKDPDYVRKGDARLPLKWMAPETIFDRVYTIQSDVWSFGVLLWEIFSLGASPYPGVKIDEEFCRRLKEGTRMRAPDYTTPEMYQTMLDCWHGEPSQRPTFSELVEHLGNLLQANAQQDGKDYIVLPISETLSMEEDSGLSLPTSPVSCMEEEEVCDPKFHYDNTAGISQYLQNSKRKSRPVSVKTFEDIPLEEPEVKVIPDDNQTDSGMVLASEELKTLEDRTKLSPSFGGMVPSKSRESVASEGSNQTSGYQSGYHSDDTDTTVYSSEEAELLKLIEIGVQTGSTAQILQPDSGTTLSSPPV
Procedure: as §1

| SMILES | IC50 (human Flt-3) | IC50 [1] |
| --- | --- | --- |
| COc1ccc(-c2cnn3c(N)c(-c4ccc(F)c(Cl)c4)c(C)nc23)cc1OC [Example 94, 6-(3-Chloro-4-fluoro-phenyl)-3-(3,4-dimethoxy-phenyl)-5-methyl-pyrazolo[1,5-a]pyrimidin-7-ylamine] | > 10 µM | > 10 µM |
| COc1ccc(-c2cnn3c(N)c(-c4ccc(F)c(Cl)c4)c(C)nc23)cc1 [Example 95, 6-(3-Chloro-4-fluoro-phenyl)-3-(4-methoxy-phenyl)-5-methyl-pyrazolo[1,5-a]pyrimidin-7-ylamine] | > 10 µM | > 10 µM |
| COc1ccc(-c2cnn3c(N)c(-c4ccc(F)cc4)c(C)nc23)cc1 [Example 96, 6-(4-Fluoro-phenyl)-3-(4-methoxy-phenyl)-5-methyl-pyrazolo[1,5-a]pyrimidin-7-ylamine] | > 10 µM | > 10 µM |
| Cc1nc2c(-c3cccc(N4CCN(CCO)CC4)c3)cnn2c(N)c1-c1ccc(F)cc1 [Example 97, 2-(4-{3-[7-Amino-6-(4-fluoro-phenyl)-5-methyl-pyrazolo[1,5-a]pyrimidin-3-yl]-phenyl}-piperazin-1-yl)-ethanol] | > 10 µM | 1 to 10 µM |
| Cc1nc2c(-c3cccc(N4CCN(C)CC4)c3)cnn2c(N)c1-c1ccc(F)c(F)c1 [Example 98, 6-(3,4-Difluoro-phenyl)-5-methyl-3-[3-(4-methyl-piperazin-1-yl)-phenyl]-pyrazolo[1,5-a]pyrimidin-7-ylamine] | > 10 µM | > 10 µM |
| COc1ccc(-c2cnn3c(N)c(-c4ccc(F)c(F)c4)c(C)nc23)cc1OC [Example 99, 6-(3,4-Difluoro-phenyl)-3-(3,4-dimethoxy-phenyl)-5-methyl-pyrazolo[1,5-a]pyrimidin-7-ylamine] | > 10 µM | > 10 µM |

The next lines start with the values.

| IC50 (human Flt-3) | IC50 [1] | SMILES |
| --- | --- | --- |
| > 10 µM | 1 to 10 µM | Cc1nc2c(-c3cccc(N4CCN(CCO)CC4)c3)cnn2c(N)c1-c1ccc(F)c(Cl)c1 [Example 100, 2-(4-{3-[7-Amino-6-(3-chloro-4-fluoro-phenyl)-5-methyl-pyrazolo[1,5-a]pyrimidin-3-yl]-phenyl}-piperazin-1-yl)-ethanol] |
| > 10 µM | 1 to 10 µM | Cc1nc2c(-c3cccc(N4CCN(CCO)CC4)c3)cnn2c(N)c1-c1ccc(F)c(F)c1 [Example 101, 2-(4-{3-[7-Amino-6-(3,4-difluoro-phenyl)-5-methyl-pyrazolo[1,5-a]pyrimidin-3-yl]-phenyl}-piperazin-1-yl)-ethanol] |
| > 10 µM | > 10 µM | Cc1nc2c(-c3cccc(N4CCC(N5CCCC5)CC4)c3)cnn2c(N)c1-c1cccc(Cl)c1 [Example 102, 6-(3-Chloro-phenyl)-5-methyl-3-[3-(4-pyrrolidin-1-yl-piperidin-1-yl)-phenyl]-pyrazolo[1,5-a]pyrimidin-7-ylamine] |
| > 10 µM | > 10 µM | Cc1nc2c(-c3cccc(N4CCC(N5CCCC5)CC4)c3)cnn2c(N)c1-c1ccc(F)cc1 [Example 103, 6-(4-Fluoro-phenyl)-5-methyl-3-[3-(4-pyrrolidin-1-yl-piperidin-1-yl)-phenyl]-pyrazolo[1,5-a]pyrimidin-7-ylamine] |
| > 10 µM | > 10 µM | Cc1nc2c(-c3cccc(N4CC[N+](C)([O-])CC4)c3)cnn2c(N)c1-c1ccc(F)cc1 [Example 106, 6-(4-Fluoro-phenyl)-5-methyl-3-[3-(4-methyl-4-oxy-piperazin-1-yl)-phenyl]-pyrazolo[1,5-a]pyrimidin-7-ylamine] |
| > 10 µM | > 10 µM | Cc1nc2c(-c3cccc([N+]4([O-])CC[N+](C)([O-])CC4)c3)cnn2c(N)c1-c1ccc(F)cc1 (stereo not drawn) [Example 107, 6-(4-Fluoro-phenyl)-5-methyl-3-[3-(4-methyl-1,4-dioxy-piperazin-1-yl)-phenyl]-pyrazolo[1,5-a]pyrimidin-7-ylamine] |
